What all share (experiment): growth of human tumour cells (NCI), 48 h
Experiment [1] concerns A549.
Experiment [2] has as its system ACHN.
Experiment [3] deals with CAKI-1.
The test system of experiment [4] is COLO 205.
For experiment [5], the system named is DU-145.
Experiment [6] deals with EKVX.
The subject of experiment [7] is HCT-116.
In experiment [8] the test system is HOP-62.
Experiment [9] relates to KM12.
Experiment [10] relates to MDA-MB-435.
The test system of experiment [11] is NCI-H23.
For experiment [12], the system named is SF-268.
Experiment [13] deals with SF-295.
For experiment [14], the system named is SK-MEL-2.
Experiment [15] has as its system SN12C.
Experiment [16] has as its system SNB-19.
Experiment [17] deals with TK-10.
Experiment [18] deals with U-251.
Experiment [19] has as its system UACC-257.
Experiment [20] relates to UO-31.

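Step 1: Grow cells in 96-well plates. Step 2: Expose to compound for 48 hours at 5 concentrations. Step 3: Interpolate endpoints linearly; if unreached, use highest concentration. The concentration for 50% growth inhibition is given as GI50.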 Active and inactive are the calls of the source. Cut-off read from the data, not from the text of the source: active = GI50 up to about 1.1 µM and inactive = higher. Starred links: 1 amine or outer side, 2 acyl side, 3 side chain; linkers in the order of their positions; H or OH if unused. Positions of bridges follow the written chain, without caps; N, C: chain ends. Non-standard residues stand in square brackets, D forms with d. Residues, ends and D or L forms follow the SMILES beside them. *: point of attachment. X40 = CC[C@H](C)[C@@H](N[*:1])[C@@H](O)CC(=O)[*:2]; NMeY = CN[C@@H](Cc1ccc(O)cc1)C(=O)O; dNMeL = CN[C@H](CC(C)C)C(=O)O; Hiv = CC(C)[C@H](O)C(=O)O; Pyruvoyl = CC(=O)C(=O)*

For `NC(=S)SCCC(=O)O`, the GI50 in experiment [1], in experiment [2], in experiment [3], in [4], in experiment [5] and in experiment [6] was > 100 µM (inactive) in each case. Moreover, the GI50 in experiment [7], in [8], in experiment [9], in [10], in [11] and in experiment [12] was > 100 µM (inactive) throughout. Also, the GI50 in experiment [13], in experiment [14], in [15], in [16], in experiment [17] and in [18] was > 100 µM (inactive) throughout. Besides, the GI50 in experiment [19] and in experiment [20] was > 100 µM (inactive) throughout.

As to `CC[C@H](C)[C@H]1NC(=O)[C@@H](NC(=O)[C@@H](CC(C)C)N(C)C(=O)[C@@H]2CCCN2C(=O)C(C)=O)[C@@H](C)OC(=O)[C@H](Cc2ccc(OC)cc2)N(C)C(=O)[C@@H]2CCCN2C(=O)[C@H](CC(C)C)NC(=O)[C@H](C(C)C)OC(=O)C[C@@H]1O` (Pyruvoyl-P[dNMeL]T[X40][Hiv]LP[NMeY](Me); ester 3-C), the GI50 was 0.00454 µM (active) in experiment [1]; 0.0203 µM (active) in [2]; 0.0581 µM (active) in experiment [3]; 0.00368 µM (active) in experiment [4]; 0.00372 µM (active) in [5]; 0.0031 µM (active) in experiment [6]. Also, the GI50 is 0.00222 µM (active) in experiment [7]; 0.0046 µM (active) in experiment [8]; 0.00148 µM (active) in experiment [9]; 0.00485 µM (active) in [10]; 0.00455 µM (active) in [11]; 0.00569 µM (active) in [12]. Further, the GI50 is 0.00718 µM (active) in experiment [13]; 0.0047 µM (active) in [14]; 0.0043 µM (active) in experiment [15]; 0.00224 µM (active) in [16]; 0.00838 µM (active) in experiment [17]; 0.00239 µM (active) in experiment [18]. Moreover, the GI50 in [19] was 0.00594 µM (active); in [20], 0.01 µM (active).

On to `CN(C)/C=N/S(=O)(=O)c1nn2c(C=O)c(-c3ccccc3)nc2s1`, for which the GI50 was 26.6 µM (inactive) in experiment [1]; 5.65 µM (inactive) in experiment [2]; 0.658 µM (active) in [3]; 4.53 µM (inactive) in experiment [4]; 23.4 µM (inactive) in experiment [5]; 30.5 µM (inactive) in [6]. The GI50 in experiment [7] is 3.26 µM (inactive); in experiment [8], 47.2 µM (inactive); in [9], 22.6 µM (inactive); in [10], 12.4 µM (inactive); in [11] it was 19.7 µM (inactive); in experiment [12], 29.5 µM (inactive). Also, the GI50 in experiment [13] was 52.8 µM (inactive); in experiment [14], 43 µM (inactive); in [15], 13.5 µM (inactive); in experiment [16], 36 µM (inactive); in experiment [17], 12.9 µM (inactive); in [18], 15.9 µM (inactive). The GI50 in experiment [19] was 24.2 µM (inactive); in experiment [20] it was 5.36 µM (inactive).

For the compound `C#C/C=C\CCCCCCCCCCCCCC/C=C\CCCCC#CC(O)C#CCCCC/C=C\CCCCCC/C=C/C(O)C#C` (centres undefined), the GI50 in [1] was 12.1 µM (inactive); in [2], 20.8 µM (inactive); in experiment [3], 7.69 µM (inactive); in experiment [4], 14.1 µM (inactive); in experiment [5], 30.9 µM (inactive); in [6], 17 µM (inactive). In addition, the GI50 in experiment [7] is 4.67 µM (inactive); in experiment [8] it was > 62.8 µM (inactive); in experiment [9] it was 7.08 µM (inactive); in [10], 4.58 µM (inactive); in [11], 9.64 µM (inactive); in experiment [12], 17.2 µM (inactive). Further, the GI50 is 17.7 µM (inactive) in experiment [13]; 12.9 µM (inactive) in [14]; 24.2 µM (inactive) in experiment [15]; 25.1 µM (inactive) in [16]; 21.6 µM (inactive) in experiment [17]; 31.9 µM (inactive) in experiment [18]. The GI50 is 27 µM (inactive) in [19] and 15.6 µM (inactive) in experiment [20].

In the case of `O=C1O/C(=C\c2ccc(O)cc2)C(c2ccc(O)c(Cl)c2)=C1Cl`, the GI50 in experiment [1] was 40.1 µM (inactive); in [2] it was 57.7 µM (inactive); in experiment [3], 37.2 µM (inactive); in experiment [4], 96.6 µM (inactive); in experiment [5], > 100 µM (inactive); in [6], 88.5 µM (inactive). Besides, the GI50 is 35.4 µM (inactive) in experiment [8]; 34 µM (inactive) in experiment [9]; 27.4 µM (inactive) in experiment [10]; 33.7 µM (inactive) in experiment [11]; 29.2 µM (inactive) in experiment [12]; 39.4 µM (inactive) in experiment [13]. The GI50 in [14] was 31.2 µM (inactive); in experiment [15], 88.9 µM (inactive); in experiment [16], 76.9 µM (inactive); in experiment [17], 54.8 µM (inactive); in [18] it was 60.5 µM (inactive); in experiment [19], 49.5 µM (inactive). Further, the GI50 in experiment [20] was 35.2 µM (inactive).

As to `CN(C)C(=O)Oc1ccc[n+](C)c1` [PYRIDOSTIGMINE BROMIDE], the GI50 in experiment [2], in [3], in [4], in experiment [5], in [6] and in experiment [7] was > 100 µM (inactive) in each case. Also, the GI50 in experiment [8], in experiment [9], in experiment [10], in [11], in experiment [12] and in [13] was > 100 µM (inactive) in each case. For the same compound, the GI50 in experiment [14], in [15], in experiment [16], in [17], in experiment [18] and in [19] was > 100 µM (inactive) each time. Further, the GI50 in experiment [20] is > 100 µM (inactive).

On to `CCCC(=O)OCC1OC(n2cc(F)c(=O)[nH]c2=O)C(F)C1OC(=O)CCC` (centres undefined), for which the GI50 in [1] is 10.1 µM (inactive); in [2] it was 25.6 µM (inactive); in experiment [3], 23.1 µM (inactive); in [4], 36.4 µM (inactive); in experiment [5], 15.3 µM (inactive); in [6], 50 µM (inactive). In addition, the GI50 in experiment [7] was 21.5 µM (inactive); in experiment [8], 4.11 µM (inactive); in [9] it was > 100 µM (inactive); in experiment [10], 51.5 µM (inactive); in [11], 35.7 µM (inactive); in experiment [12] it was 8.53 µM (inactive). Moreover, the GI50 in [13] is 49.2 µM (inactive); in [14] it was > 100 µM (inactive); in experiment [15], 19.2 µM (inactive); in experiment [17], 49.3 µM (inactive); in experiment [18] it was 10.9 µM (inactive); in experiment [19] it was 85.7 µM (inactive). Moreover, the GI50 in [20] was 69.7 µM (inactive).

On to `S=C(N1CCN(c2ccc(Cl)c(Cl)c2)CC1)N1CCN(c2ccc(Cl)c(Cl)c2)CC1`, for which the GI50 in experiment [1] is 16.3 µM (inactive); in experiment [2], 14.4 µM (inactive); in experiment [3], 7.4 µM (inactive); in experiment [4], 10.6 µM (inactive); in experiment [5] it was 12.4 µM (inactive); in [6] it was 3.38 µM (inactive). Further, the GI50 in experiment [7] is 7.19 µM (inactive); in experiment [8], 12.5 µM (inactive); in [9], 14.1 µM (inactive); in [10] it was 15.4 µM (inactive); in experiment [11] it was 15.3 µM (inactive); in experiment [12] it was 14.4 µM (inactive). The GI50 was 9.25 µM (inactive) in experiment [13]; 19.9 µM (inactive) in experiment [14]; 12.5 µM (inactive) in experiment [16]; 13.4 µM (inactive) in experiment [17]; 14.7 µM (inactive) in [18]; 17.1 µM (inactive) in experiment [19]. Also, in [20], the GI50 was 13.1 µM (inactive).

Turning to `Cc1ccc(S(=O)(=O)NC(CN)C(=O)O)cc1` (centres undefined), the GI50 in experiment [1], in experiment [2], in experiment [3], in [4], in experiment [5] and in experiment [6] was > 100 µM (inactive) throughout. In addition, the GI50 in experiment [7], in [8], in experiment [9], in experiment [10], in experiment [11] and in experiment [12] was > 100 µM (inactive) each time. For the same compound, the GI50 in experiment [13], in experiment [14], in experiment [16], in [17], in experiment [18] and in experiment [19] was > 100 µM (inactive) in each case. Further, in [20], the GI50 was > 100 µM (inactive).

With `CN(C)CCn1c(=O)oc2cc(C(=O)CN3CCOCC3)ccc21`, the GI50 in experiment [2], in experiment [3], in [4], in [5], in experiment [6] and in experiment [7] was > 100 µM (inactive) in each case. In addition, the GI50 in experiment [8], in experiment [9], in [10], in experiment [11], in experiment [12] and in experiment [13] was > 100 µM (inactive) throughout. In addition, the GI50 in [14], in experiment [15], in experiment [16], in experiment [17], in experiment [18] and in [19] was > 100 µM (inactive) throughout. For the same compound, in experiment [20], the GI50 was 88.1 µM (inactive).

The values above are taken from ChEMBL document CHEMBL1201862, “PubChem BioAssay data set” (2004).
